Results as given in paper PMC3104124 (Journal of molecular biology, 2011).

Target: T1, Ste2p (wild type, C-terminally truncated) (Saccharomyces cerevisiae, UniProt D6VTK4)
T1 sequence (D6VTK4 1-304): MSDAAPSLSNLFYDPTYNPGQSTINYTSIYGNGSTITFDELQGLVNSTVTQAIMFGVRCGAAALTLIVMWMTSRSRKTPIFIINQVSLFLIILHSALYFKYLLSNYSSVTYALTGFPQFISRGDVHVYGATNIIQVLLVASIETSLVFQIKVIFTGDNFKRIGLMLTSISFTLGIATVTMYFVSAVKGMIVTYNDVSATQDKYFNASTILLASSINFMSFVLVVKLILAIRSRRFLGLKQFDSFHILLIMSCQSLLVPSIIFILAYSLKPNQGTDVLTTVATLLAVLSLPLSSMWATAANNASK
Test: Fluorescent ligand binding
Settings: FL1/FL2 emission of the ligand labeled with NBD at Lys7, bound to normal Ste2p; normalised to [Lys^7(NBD),Nle^12]α-factor

| Substance | Relative Bmax Ratio |
| --- | --- |
| [desTrp^1,desHis^2,Nle^12]α-factor | 0.42 ± 0.05 |
| [des-Trp^1,Ala^3,Nle^12]α-factor | 0.49 ± 0.03 |
